The record followed here is patent US6518243B1, “Desleucyl glycopeptide antibiotics and methods of making same” (Trustees of Princeton University, priority 1999, dated 2003).

SMILES strings stand for the structures.

Assay [1] has as its system E. faecium CL 4931. The experiment in a line: MIC determination in BHI media, OD600. Format: cell-based. The note with it: BHI + 0.1% casamino acids, 18 hours at 37° C., ≧90% OD600 inhibition. In outline: (§1)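 MIC was judged per concentration from endpoint plate readings after an 18-hour incubation at 37° C, using log-phase inoculum at about 5×10^5 CFU/ml and test agents serially diluted in DMSO.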

For assay [2], the system named is S aureus ATCC 29213. The experiment in a line: MIC determination in BHI media, OD600. The note with it: BHI + 0.1% casamino acids, 18 hours at 37° C., ≧90% OD600 inhibition. Format: cell-based. In short, it runs like this:
as §1

Assay [3] concerns E. faecalis ATCC 29212. The experiment in a line: MIC determination in BHI media, OD600. Format: cell-based. The conditions noted are these: BHI + 0.1% casamino acids, 18 hours at 37° C., ≧90% OD600 inhibition. In short, it runs like this: as §1
Assay [4] has as its system E. faecium ATCC 49624. The experiment in a line: MIC determination in BHI media, OD600. Format: cell-based. The conditions noted are these: BHI + 0.1% casamino acids, 18 hours at 37° C., ≧90% OD600 inhibition. In outline:
as §1

Assay [5] has as its system S. Aureus ATCC 33591. The experiment in a line: MIC determination in BHI media, OD600. Format: cell-based. The conditions noted are these: BHI + 0.1% casamino acids, 18 hours at 37° C., ≧90% OD600 inhibition. In short, it runs like this: as §1
In assay [6] the test system is E. faceium (ATCC 49624). The experiment in a line: Zone of inhibition screen, 96 well agar array format. Format: cell-based, E. faecium. The conditions noted are these: zone of inhibition relative to 1 mg/ml stock solution of p-chlorobiphenylvancomycin. In short, it runs like this:
(§2)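 Antibacterial testing on a 96-well agar array; each compound screened separately.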

Assay [7] deals with E. Faecalis CL 4877. The experiment in a line: MIC determination in BHI media, OD600. Format: cell-based. The conditions noted are these: BHI + 0.1% casamino acids, 18 hours at 37° C., ≧90% OD600 inhibition. In outline:
as §1

For assay [8], the system named is S. aureus (ATCC 29213). The experiment in a line: Zone of inhibition screen, 96 well agar array format. Format: cell-based. Further details: scale not given here. The conditions noted are these: zone of inhibition relative to 1 mg/ml stock solution of p-chlorobiphenylvancomycin. In outline:
as §2

Assay [9] deals with E. faecalis (CL 4877). Described as above. Further details: scale not given here. The note with it: zone of inhibition relative to 1 mg/ml stock solution of p-chlorobiphenylvancomycin. Format: cell-based. In outline: as §2
The test system of assay [10] is S. epidermidis (ATCC 12228). Described as above. The conditions noted are these: zone of inhibition relative to 1 mg/ml stock solution of p-chlorobiphenylvancomycin. Format: cell-based. Further details: scale not given here. In short, it runs like this:
as §2
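Wherever zone score, E. faecium ATCC 49624 is given: score 3 means fourfold and score 4 sixteenfold the reference zone size.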

With `CC(C)OCC(N)C(=O)NC1C(=O)NC(CC(N)=O)C(=O)NC2C(=O)NC3C(=O)NC(C(=O)NC(C(=O)O)c4cc(O)cc(O)c4-c4cc3ccc4O)C(O)c3ccc(c(Cl)c3)Oc3cc2cc(c3OC2OC(CO)C(O)C(O)C2OC2CC(C)(NCc3ccc(-c4ccc(Cl)cc4)cc3)C(O)C(C)O2)Oc2ccc(cc2Cl)C1O` (stereo not drawn) [Compound 528], the MIC E. faecium CL 4931 in assay [1] was found to be 25 µg/mL. Moreover, the MIC S. aureus ATCC 29213 in assay [2] amounted to 0.25 µg/mL. The MIC E. faecalis ATCC 29212 in assay [3] worked out at 0.78 µg/mL. Also, the MIC E. faecium ATCC 49624 in assay [4] was determined as 0.12 µg/mL. Further, the MIC S. aureus ATCC 33591 in assay [5] came to 0.25 µg/mL.
In the case of `CC(C)[C@H](N)C(=O)N[C@H]1C(=O)N[C@@H](CC(N)=O)C(=O)N[C@H]2C(=O)N[C@H]3C(=O)N[C@H](C(=O)N[C@@H](C(=O)O)c4cc(O)cc(O)c4-c4cc3ccc4O)[C@H](O)c3ccc(c(Cl)c3)Oc3cc2cc(c3O[C@@H]2O[C@H](CO)[C@@H](O)[C@H](O)[C@H]2O[C@@H]2C[C@@](C)(NCc3ccc(-c4ccc(Cl)cc4)cc3)[C@@H](O)[C@@H](C)O2)Oc2ccc(cc2Cl)[C@H]1O` [Compound 20], the MIC S. aureus ATCC 29213 in [2] was determined as 0.25 µg/mL. Besides, the MIC E. faecalis ATCC 29212 in assay [3] came to 0.78 µg/mL. For the same compound, the MIC E. faecium ATCC 49624 in assay [4] came to 0.25 µg/mL. Further, the MIC S. aureus ATCC 33591 in [5] turned out to be 0.39 µg/mL. The “zone score, E. faecium ATCC 49624” value in assay [6] turned out to be 2.
With `CC1OC(OC2C(Oc3c4cc5cc3Oc3ccc(cc3Cl)C(O)C3NC(=O)C(NC(=O)C5NC(=O)C(CC(N)=O)NC(=O)C(NC(=O)C(N)Cc5c[nH]cn5)C(O)c5ccc(c(Cl)c5)O4)c4ccc(O)c(c4)-c4c(O)cc(O)cc4C(C(=O)O)NC3=O)OC(CO)C(O)C2O)CC(C)(NCc2ccc(-c3ccc(Cl)cc3)cc2)C1O` (stereo not drawn) [Compound 554], the MIC E. faecalis CL 4877 in assay [7] came out at 25 µg/mL. The MIC E. faecium ATCC 49624 in assay [4] came to 0.39 µg/mL. In assay [5], the MIC S. aureus ATCC 33591 came to 0.78 µg/mL.
Take `CC(NCC(N)C(=O)NC1C(=O)NC(CC(N)=O)C(=O)NC2C(=O)NC3C(=O)NC(C(=O)NC(C(=O)O)c4cc(O)cc(O)c4-c4cc3ccc4O)C(O)c3ccc(c(Cl)c3)Oc3cc2cc(c3OC2OC(CO)C(O)C(O)C2OC2CC(C)(NCc3ccc(-c4ccc(Cl)cc4)cc3)C(O)C(C)O2)Oc2ccc(cc2Cl)C1O)=C1C(=O)CC(C)(C)CC1=O` (stereo not drawn) [Compound 56]: the MIC S. aureus ATCC 29213 in assay [2] amounted to 0.25 µg/mL. The MIC E. faecalis ATCC 29212 in [3] amounted to 0.78 µg/mL. The MIC E. faecium ATCC 49624 in assay [4] is 0.12 µg/mL. In addition, the MIC S. aureus ATCC 33591 in assay [5] was found to be 0.25 µg/mL. Also, the “zone score, E. faecium ATCC 49624” value in assay [6] is 2.
Consider `C[C@H](O)C(=O)N[C@H]1C(=O)N[C@@H](CC(N)=O)C(=O)N[C@H]2C(=O)N[C@H]3C(=O)N[C@H](C(=O)N[C@@H](C(=O)O)c4cc(O)cc(O)c4-c4cc3ccc4O)[C@H](O)c3ccc(c(Cl)c3)Oc3cc2cc(c3O[C@@H]2O[C@H](CO)[C@@H](O)[C@H](O)[C@H]2O[C@@H]2C[C@@](C)(NCc3ccc(-c4ccc(Cl)cc4)cc3)[C@@H](O)[C@@H](C)O2)Oc2ccc(cc2Cl)[C@H]1O` [Compound 21], for which the MIC E. faecalis CL 4877 in assay [7] turned out to be 25 µg/mL. Further, the MIC E. faecium CL 4931 in assay [1] is 25 µg/mL. The “zone score, S. aureus ATCC 29213” value in assay [8] was 2. Moreover, the “zone score, E. faecalis CL 4877” value in assay [9] is recorded as 2. For the same compound, the “zone score, S. epidermidis ATCC 12228” value in [10] is recorded as 2.
On to `CC(N)C(=O)NCC(=O)NC1C(=O)NC(CC(N)=O)C(=O)NC2C(=O)NC3C(=O)NC(C(=O)NC(C(=O)O)c4cc(O)cc(O)c4-c4cc3ccc4O)C(O)c3ccc(c(Cl)c3)Oc3cc2cc(c3OC2OC(CO)C(O)C(O)C2OC2CC(C)(NCc3ccc(-c4ccc(Cl)cc4)cc3)C(O)C(C)O2)Oc2ccc(cc2Cl)C1O` (stereo not drawn) [Compound 36], for which the MIC S. aureus ATCC 29213 in assay [2] was 0.39 µg/mL. Further, the MIC E. faecalis ATCC 29212 in [3] stood at 0.78 µg/mL. The MIC E. faecium ATCC 49624 in [4] is 0.12 µg/mL. Moreover, in [5], the MIC S. aureus ATCC 33591 amounted to 0.39 µg/mL. The “zone score, E. faecium ATCC 49624” value in assay [6] was determined as 2.
`CCCC(N)C(=O)NC1C(=O)NC(CC(N)=O)C(=O)NC2C(=O)NC3C(=O)NC(C(=O)NC(C(=O)O)c4cc(O)cc(O)c4-c4cc3ccc4O)C(O)c3ccc(c(Cl)c3)Oc3cc2cc(c3OC2OC(CO)C(O)C(O)C2OC2CC(C)(NCc3ccc(-c4ccc(Cl)cc4)cc3)C(O)C(C)O2)Oc2ccc(cc2Cl)C1O` (stereo not drawn) [Compound 341]: the MIC E. faecalis CL 4877 in [7] came out at 25 µg/mL. Also, the MIC S. aureus ATCC 29213 in assay [2] came to 0.78 µg/mL. Also, the MIC E. faecium ATCC 49624 in assay [4] stood at 0.78 µg/mL. For the same compound, in [5], the MIC S. aureus ATCC 33591 amounted to 0.78 µg/mL.
Turning to `CC1OC(OC2C(Oc3c4cc5cc3Oc3ccc(cc3Cl)C(O)C3NC(=O)C(NC(=O)C5NC(=O)C(CC(N)=O)NC(=O)C(NC(=O)C(N)CO)C(O)c5ccc(c(Cl)c5)O4)c4ccc(O)c(c4)-c4c(O)cc(O)cc4C(C(=O)O)NC3=O)OC(CO)C(O)C2O)CC(C)(NCc2ccc(-c3ccc(Cl)cc3)cc2)C1O` (stereo not drawn) [Compound 88], the MIC E. faecalis CL 4877 in assay [7] amounted to 25 µg/mL. Also, the MIC S. aureus ATCC 29213 in [2] is 0.78 µg/mL. For the same compound, the MIC E. faecium ATCC 49624 in assay [4] is 0.78 µg/mL. Moreover, in assay [8], the “zone score, S. aureus ATCC 29213” value turned out to be 2. Moreover, the “zone score, E. faecalis CL 4877” value in assay [9] was 2. In addition, the “zone score, S. epidermidis ATCC 12228” value in assay [10] came to 2. Also, the “zone score, E. faecium ATCC 49624” value in assay [6] came to 2.
